Entries after “also recorded” stand apart in the source; their conditions may differ.
Tests used:
lettuce [1] = assay: Size of roots and leaves of harvested lettuce; type: in vivo; conditions: for Leaves (each) Width: control 3-5 cm; for Root (as a whole) Width: control 6 cm; for Root (as a whole) Length: control 8 cm; for Leaves (each) Length: control 20-21 cm; for Size of roots and leaves / plant growth compared with control: approximately eight weeks (two months) after sowing
Text: A commercial plant box as shown in FIG. 1A was used for the experiment. The bottom one half was filled with sandbox sand, and the top layer was filled with six inches of non-fertilized soil. The level of the soil was four inches below the top of the container. The plant box was partitioned into three sections with physical barriers in between, from the top of the soil to the bottom of the plant box, as illustrated in FIG. 1B.
A single straight line of 0.25-inch-deep trough was formed in each section. Then, lettuce seeds were placed in the trough according to the methods laid out in Table 1 below. Each section was watered daily with tap water.
Approximately eight weeks after sowing, a portion of each group was harvested, and size of the roots and leaves of the harvested lettuce was measured, as summarized in Table 3 below.

rice = conditions: had been reported; cited from earlier work
lettuce [2] = assay: Browning of harvested and cut lettuce; type: in vivo
Text: Browning of the lettuce harvested at approximately eight weeks after sowing were examined for experimental groups 2 and 3. The cut end of the stalk and the cut area on the leaves were observed. First browning appeared on the cut end six days after harvesting and cutting.

lettuce [3] = assay: Remaining lettuce observed until final harvest (wilting, size, pest holes); type: in vivo; conditions: approximately 14 weeks after sowing
red azaleas = assay: Flowering of red azaleas; type: in vivo, azalea (red bird variety); conditions: small amount of PCA crystals around the stem
Text: In one of the two azalea plants (red bird variety), small amount of PCA crystals were placed around the stem, and both were watered daily. The plant treated with PCA bloomed in three weeks, and the other plant bloomed in seven weeks.

pink azaleas = assay: Flowering and sprouting of pink azaleas; type: in vivo, pink azalea
Text: In the experimental plant, small amount of PCA crystals were placed around the stem, and both plants were watered daily.

[4] = approximately eight weeks after sowing

SMILES | Shape of root and leaves compared with other groups (lettuce [1]; [4]) | Leaves (each) Width (lettuce [1]; [4]) | Root (as a whole) Width (lettuce [1]; [4]) | Root (as a whole) Length (lettuce [1]; [4]) | Leaves (each) Length (lettuce [1]; [4]) | Size of roots and leaves / plant growth compared with control (lettuce [1]) | Effect on growth of some plant species, e.g., rice (rice) | Time to first browning on the cut end after harvesting and cutting (lettuce [2]; lettuce harvested approximately eight weeks after sowing) | Browning in the cut areas of the leaves (lettuce [2]; six days after cutting) | Browning on cut end of the stalk compared with control (lettuce [2]; six days after harvesting and cutting) | Size of leaves and roots at final harvest, group 3 versus group 2 (lettuce [3]) | Speed of flowering compared with untreated plant (red azaleas) | Time to bloom (red azaleas; watered daily, untreated plant seven weeks) | Blooming compared with control plant (pink azaleas; approximately five weeks after placing PCA crystals around the stem) | Flowering, buds and shoots compared with control plant (pink azaleas; approximately seven weeks after placing PCA crystals, control wilted) | Buds compared with control plant (pink azaleas; approximately six weeks after placing PCA crystals) | Overall flowering, sprouting and budding compared with control (pink azaleas; summary)
O=C(O)c1ccc(O)c(O)c1 [PCA coating, protocatechuic acid] | the root was relatively narrower, and the leaves were relatively wider and shorter; also recorded: a different shaped single root | 4-7 cm | 3-5 cm | 8-11 cm | 17-18 cm | – | – | – | – | – | – | – | – | – | – | – | –
O=C(O)c1ccc(O)c(O)c1 [PCA, protocatechuic acid] | – | – | – | – | – | enhanced plant growth; larger root system and larger leaves than the control | no effect on growth | – | – | – | – | – | – | – | – | – | –
O=C(O)c1ccc(O)c(O)c1 [PCA crystals, protocatechuic acid] | – | 4-6 cm | 9 cm | 10 cm | 24 cm | bigger roots and leaves than the control | – | six | no browning was observed; also recorded: no browning was seen where leaves were cut | not as thick as in the control group; also recorded: did not show thick brown covering on the stump | larger and wider leaves and larger roots than experimental group 2 | more than twice as fast | three | started to bloom before the control plant did, and had more flowers blooming than the control plant | continued to flower and had more buds and taller shoot of stems than the control | had many more buds on the top yet to flower | flowered sooner, added sprouts sooner, and had budding that lasted longer than the control

Source: US20210371353A1, “FERTILIZER COMPOSITIONS AND PLANTS CONTAINING PROTOCATECHUIC ACID, AND USES THEREOF” (priority 2020, published 2021)
